Source: US20050075375A1 (priority 2003, published 2005)

Test system: monocistronic NK5.1 HCV replicon in Huh7 cells
Test: HCV replicon assay, monocistronic replicon cell line
Assay type: cell-based, hepatitis C virus
Settings: Hepatitis C virus, Huh-7; monocistronic NK5.1 HCV replicon in Huh7 cells; median value; read-out: Mono EC50 Median
In short: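 Huh7 cells carrying the monocistronic NK5.1 replicon, seeded 24 h before dosing, were exposed to six-point half-log compound series (0.6% DMSO) for 3 days at 37 °C. Replicon RNA was quantified by TaqMan RT-PCR, normalised to GAPDH and compared with DMSO controls to derive EC50.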

| SMILES | EC50 |
| --- | --- |
| Cc1cccnc1-c1noc(-c2ccc(OCc3ccccc3)cc2O)n1 [Compound 274, 5-Benzyloxy-2-[3-(3-methyl-pyridin-2-yl)-[1,2,4]oxadiazol-5-yl]-phenol] | 1.8 µM |
| CC(=O)Nc1ccc(O)c(-c2nc(-c3ncccc3C)no2)c1 [Compound 275, N-{4-Hydroxy-3-[3-(3-methyl-pyridin-2-yl)-[1,2,4]oxadiazol-5-yl]-phenyl}-acetamide] | 18 µM |
| Cc1cccnc1-c1noc(-c2ccc(NC(=O)OC(C)(C)C)cc2O)n1 [Compound 276, {3-Hydroxy-4-[3-(3-methyl-pyridin-2-yl)-[1,2,4]oxadiazol-5-yl]-phenyl}-carbamic acid tert-butyl ester] | 0.7 µM |
| Cc1cccnc1-c1noc(-c2ccc(N)cc2O)n1 [Compound 277, 5-Amino-2-[3-(3-methyl-pyridin-2-yl)-[1,2,4]oxadiazol-5-yl]-phenol] | 6 µM |
| Cc1cccnc1-c1noc(-c2cc(Cl)cc(Cl)c2O)n1 [Compound 278, 2,4-Dichloro-6-[3-(3-methyl-pyridin-2-yl)-[1,2,4]oxadiazol-5-yl]-phenol] | 3.8 µM |
| Cc1cccnc1-c1noc(-c2cc(Cl)cc(Br)c2O)n1 [Compound 279, 2-Bromo-4-chloro-6-[3-(3-methyl-pyridin-2-yl)-[1,2,4]oxadiazol-5-yl]-phenol] | 3.3 µM |
| Cc1cccnc1-c1noc(-c2cc(Br)cc(Br)c2O)n1 [Compound 280, 2,4-Dibromo-6-[3-(3-methyl-pyridin-2-yl)-[1,2,4]oxadiazol-5-yl]-phenol] | 7.4 µM |
| Oc1c(Cl)cc(Cl)cc1-c1nc(-c2ccccn2)no1 [Compound 281] | 2.1 µM |
| COc1ccc(-c2nc(-c3ncccc3C)no2)c(O)c1OC [Compound 282, 2,3-Dimethoxy-6-[3-(3-methyl-pyridin-2-yl)-[1,2,4]oxadiazol-5-yl]-phenol] | 1.3 µM |
| COc1ccc(O)c(-c2nc(-c3ccoc3)no2)c1 [Compound 283, 2-(3-Furan-3-yl-[1,2,4]oxadiazol-5-yl)-4-methoxy-phenol] | 15 µM |
| Cc1ccc(O)c(-c2nc(-c3ccoc3)no2)c1 [Compound 284, 2-(3-Furan-3-yl-[1,2,4]oxadiazol-5-yl)-4-methyl-phenol] | 17 µM |
| Oc1ccc2ccccc2c1-c1nc(-c2ccoc2)no1 [Compound 285] | 11 µM |
| COc1ccc(-c2nc(-c3ccoc3)no2)c(O)c1 [Compound 286, 2-(3-Furan-3-yl-[1,2,4]oxadiazol-5-yl)-5-methoxy-phenol] | 9.7 µM |
| Oc1ccc(OC(F)(F)F)cc1-c1nc(-c2ccc(C(F)(F)F)cn2)no1 [Compound 287, 4-Trifluoromethoxy-2-[3-(5-trifluoromethyl-pyridin-2-yl)-[1,2,4]oxadiazol-5-yl]-phenol] | 1.7 µM |
| Cc1cccnc1-c1noc(-c2ccc(NCc3ccccc3)cc2O)n1 [Compound 288, 5-Benzylamino-2-[3-(3-methyl-pyridin-2-yl)-[1,2,4]oxadiazol-5-yl]-phenol] | 0.8 µM |
| Cc1cccnc1-c1noc(-c2ccc(NC(=O)c3ccccc3)cc2O)n1 [Compound 289] | 6.1 µM |
| Cc1cccnc1-c1noc(-c2cc(NC(=O)c3ccccc3)ccc2O)n1 [Compound 290, N-{4-Hydroxy-3-[3-(3-methyl-pyridin-2-yl)-[1,2,4]oxadiazol-5-yl]-phenyl}-benzamide] | 2.8 µM |
| CC(=O)Nc1ccc(-c2nc(-c3ncccc3C)no2)c(O)c1 [Compound 291] | 6 µM |
| Oc1ccc(Br)cc1-c1nc(-c2ncccc2C(F)(F)F)no1 [Compound 292, 4-Bromo-2-[3-(3-trifluoromethyl-pyridin-2-yl)-[1,2,4]oxadiazol-5-yl]-phenol] | 1.5 µM |
| Cc1cccnc1-c1noc(-c2cccc(C)c2O)n1 [Compound 293, 2-Methyl-6-[3-(3-methyl-pyridin-2-yl)-[1,2,4]oxadiazol-5-yl]-phenol] | 1.7 µM |
| CSc1ccc(O)c(-c2nc(-c3ncccc3C)no2)c1 [Compound 294, 2-[3-(3-Methyl-pyridin-2-yl)-[1,2,4]oxadiazol-5-yl]-4-methylsulfanyl-phenol] | 0.2 µM |
| Cc1ccc(-c2nc(-c3ncccc3C)no2)c(O)c1 [Compound 295] | 2.1 µM |
| Cc1cccnc1-c1noc(-c2cc(C3OCC(C)(C)CO3)ccc2O)n1 [Compound 297, 4-(5,5-Dimethyl-[1,3]dioxan-2-yl)-2-[3-(3-methyl-pyridin-2-yl)-[1,2,4]oxadiazol-5-yl]-phenol] | 0.43 µM |
| Cc1cccnc1-c1noc(-c2cccc(NC(=O)OC(C)(C)C)c2O)n1 [Compound 298] | 0.62 µM |
| COc1ccc(O)c(-c2noc(-c3ccoc3)n2)c1 [Compound 299, 2-(5-Furan-3-yl-[1,2,4]oxadiazol-3-yl)-4-methoxy-phenol] | 21.7 µM |
| Cc1cccnc1-c1noc(-c2cccc(C(C)C)c2O)n1 [Compound 300, 2-Isopropyl-6-[3-(3-methyl-pyridin-2-yl)-[1,2,4]oxadiazol-5-yl]-phenol] | 1.5 µM |
| COc1ccc(O)c(-c2noc(-c3ncccc3C)n2)c1 [Compound 301, 4-Methoxy-2-[5-(3-methyl-pyridin-2-yl)-[1,2,4]oxadiazol-3-yl]-phenol] | > 32 µM |

| SMILES | EC50 |
| --- | --- |
| COc1ccc(O)c(-c2noc(-c3ccco3)n2)c1 [Compound 302, 2-(5-Furan-2-yl-[1,2,4]oxadiazol-3-yl)-4-methoxy-phenol] | 16 µM |
| Cc1ccccc1-c1nnc(-c2ccco2)o1 [Compound 303, 2-Furan-2-yl-5-o-tolyl-[1,3,4]oxadiazole] | > 32 µM |
| Oc1ccc2ccccc2c1-c1nnc(-c2ccccc2)o1 [Compound 304, 1-(5-Phenyl-[1,3,4]oxadiazol-2-yl)-naphthalen-2-ol] | > 32 µM |
| Oc1ccc2ccccc2c1-c1nnc(-c2ccccc2F)o1 [Compound 305, 1-[5-(2-Fluoro-phenyl)-[1,3,4]oxadiazol-2-yl]-naphthalen-2-ol] | > 32 µM |
| Oc1ccc2ccccc2c1-c1nnc(-c2ccccc2C(F)(F)F)o1 [Compound 306, 1-[5-(2-Trifluoromethyl-phenyl)-[1,3,4]oxadiazol-2-yl]-naphthalen-2-ol] | 26 µM |
| Oc1ccc2ccccc2c1-c1nnc(-c2ccco2)o1 [Compound 307, 1-(5-Furan-2-yl-[1,3,4]oxadiazol-2-yl)-naphthalen-2-ol] | > 32 µM |
| Oc1ccc2ccccc2c1-c1nnc(-c2cccs2)o1 [Compound 308, 1-(5-Thiophen-2-yl-[1,3,4]oxadiazol-2-yl)-naphthalen-2-ol] | 26 µM |
| Oc1ccc2ccccc2c1-c1nnc(-c2ncc(C(F)(F)F)cc2Cl)o1 [Compound 309, 1-[5-(3-Chloro-5-trifluoromethyl-pyridin-2-yl)-[1,3,4]oxadiazol-2-yl]-naphthalen-2-ol] | 16 µM |
| Oc1ccc2ccccc2c1-c1nnc(-c2c(Cl)cccc2Cl)o1 [Compound 310, 1-[5-(2,6-Dichloro-phenyl)-[1,3,4]oxadiazol-2-yl]-naphthalen-2-ol] | 4.4 µM |
| O=[N+]([O-])c1ccccc1-c1nnc(-c2c(O)ccc3ccccc23)o1 [Compound 311, 1-[5-(2-Nitro-phenyl)-[1,3,4]oxadiazol-2-yl]-naphthalen-2-ol] | 4 µM |
| Cc1ccccc1-c1nnc(-c2ccccc2)o1 [Compound 312, 2-Phenyl-5-o-tolyl-[1,3,4]oxadiazole] | > 32 µM |
| Cc1ccccc1-c1nnc(-c2ccccc2F)o1 [Compound 313, 2-(2-Fluoro-phenyl)-5-o-tolyl-[1,3,4]oxadiazole] | > 32 µM |
| Cc1ccccc1-c1nnc(-c2ccccc2C(F)(F)F)o1 [Compound 314, 2-o-Tolyl-5-(2-trifluoromethyl-phenyl)-[1,3,4]oxadiazole] | 20 µM |
| Cc1ccccc1-c1nnc(-c2ccccc2[N+](=O)[O-])o1 [Compound 315, 2-(2-Nitro-phenyl)-5-o-tolyl-[1,3,4]oxadiazole] | > 32 µM |
| Cc1ccccc1-c1nnc(-c2c(Cl)cccc2Cl)o1 [Compound 316, 2-(2,6-Dichloro-phenyl)-5-o-tolyl-[1,3,4]oxadiazole] | > 32 µM |
| Cc1ccccc1-c1nnc(-c2cccs2)o1 [Compound 317, 2-Thiophen-2-yl-5-o-tolyl-[1,3,4]oxadiazole] | > 32 µM |
| Oc1ccccc1-c1nnc(-c2ccccc2)o1 [Compound 318, 2-(5-Phenyl-[1,3,4]oxadiazol-2-yl)-phenol] | 14 µM |
| Oc1ccccc1-c1nnc(-c2ccccc2F)o1 [Compound 319, 2-[5-(2-Fluoro-phenyl)-[1,3,4]oxadiazol-2-yl]-phenol] | 18 µM |
| Oc1ccccc1-c1nnc(-c2ccccc2C(F)(F)F)o1 [Compound 320, 2-[5-(2-Trifluoromethyl-phenyl)-[1,3,4]oxadiazol-2-yl]-phenol] | > 32 µM |
| O=[N+]([O-])c1ccccc1-c1nnc(-c2ccccc2O)o1 [Compound 321, 2-[5-(2-Nitro-phenyl)-[1,3,4]oxadiazol-2-yl]-phenol] | > 32 µM |
| Oc1ccccc1-c1nnc(-c2c(Cl)cccc2Cl)o1 [Compound 322, 2-[5-(2,6-Dichloro-phenyl)-[1,3,4]oxadiazol-2-yl]-phenol] | 12 µM |
| Oc1ccccc1-c1nnc(-c2ccco2)o1 [Compound 323, 2-(5-Furan-2-yl-[1,3,4]oxadiazol-2-yl)-phenol] | > 32 µM |
| Oc1ccccc1-c1nnc(-c2cccs2)o1 [Compound 324, 2-(5-Thiophen-2-yl-[1,3,4]oxadiazol-2-yl)-phenol] | > 32 µM |
| COc1ccccc1-c1nnc(-c2ccccc2)o1 [Compound 325, 2-(2-Methoxy-phenyl)-5-phenyl-[1,3,4]oxadiazole] | > 32 µM |
| COc1ccccc1-c1nnc(-c2ccccc2F)o1 [Compound 326, 2-(2-Fluoro-phenyl)-5-(2-methoxy-phenyl)-[1,3,4]oxadiazole] | > 32 µM |
| COc1ccccc1-c1nnc(-c2ccccc2C(F)(F)F)o1 [Compound 327, 2-(2-Methoxy-phenyl)-5-(2-trifluoromethyl-phenyl)-[1,3,4]oxadiazole] | 25 µM |
